Reference: patent US20080299076A1, “Compunds and compositions that cause non-apoptotic cell death and uses thereof” (priority 2006, published 2008)

Key:
[1] = Toxicity after injection in mice; type: in vivo
Experimental: In certain embodiments, erastin was formulated at 150 mg/kg in 10% DMSO, 20% Tween 80, 70% saline and 0.5 mL of this formulation was injected via IV twice per day for four days in 3 nude mice.

[2] = test system: BJ-TERT/LT/ST/RAS^V12 cells; assay: Annexin V staining; type: cell-based, human; details: erastin 9 μM
Experimental: The percentage of cells in the indicated Ml region were 6%, 6%, and 38% in untreated, erastin-treated (9 μM), and camptothecin-treated (1 μM), respectively.

VDAC2, VDAC3 = assay: VDAC isoform levels after erastin treatment (quantitative 2D western); type: cell-based, human
Source text: Quantitative western blot of VDAC/eif4E protein ratio in engineered BJ-derived cells. (b) Identification of VDAC isoforms in BJ-TERT/LT/ST/RAS^V12 cells using 2-D electrophoresis. i) VDAC1, VDAC2 and VDAC3 were detected by a rabbit polyclonal VDAC antibody (Abcam/ab3434), ii) VDAC1 was detected by a mouse monoclonal VDAC1 antibody (Calbiochem/529534), iii) VDAC2 was detected by a goat polyclonal VDAC2 antibody (Abcam/ab22170), iv) An illustration of 3 isoforms of VDAC separated by the 2-D gel electrophoresis. (c) BJ-TERT/LT/ST/RAS^V12 cells were treated with erastin for the indicated time and levels of each VDAC isoform determined by quantitative 2D western. (d,e) Infection with VDAC3 shRNA protects erastin-treated cells. 293T cells were transfected with shRNA-plasmid construct using FuGene and viral supernatant transferred to HT1080 cells, and treated with erastin dilutions and viability measured using Trypan Blue exclusion. […] (f) Quantitative RT-PCR measurements of mRNA levels of the 3 VDAC isoforms after infection with shVDAC3. Knockdown was determined by normalizing to the levels in the shGFP-infected control. […] (g) Mitochondria were purified from yeast expressing murine VDAC3 in place of yeast VDAC, and the rate of NADH uptake determined in the presence or absence of erastin, or in shocked mitochondria in which the outer membrane was disrupted. […]

[3] = test system: BJ-TERT/LT/ST/RAS^V12 cells; assay: Oxidative species detection (H2DCF-DA, flow cytometry); type: cell-based, human; details: 4.6 μM erastin
Experimental: BJ-TERT/LT/ST/RAS^V12 cells (shown in histogram plots and in line graph, dark line) and BJ-TERT cells (shown in line graph only, light line) were treated with 4.6-μM erastin and the level of intracellular oxidative species determined using 2′7′-dichlorodihydrofluorescein diacetate (H2DCF-DA, Molecular Probes) and flow cytometry. Cells were seeded at 3×10^5 cells per dish in 60-mm dishes and allowed to grow overnight. Cells were incubated with 10 μM of H2DCF-DA for 10 minutes, harvested by trypsinization, washed twice with cold PBS, re-suspended in 100 μl of PBS and incubated with 5 μl of 50-μg/ml propidium iodide for 10 minutes. 400 μl of PBS was added and the solution analyzed by flow cytometry (FACSCalibur-Becton-Dickinson).
2′7′-dichlorodihydrofluorescein diacetate (H2DCF-DA, Molecular Probes) was used to measure oxidative species by flow cytometry. Non-fluorescent H2DCF-DA is cleaved by endogenous esterases and then is oxidized to generate fluorescent dichlorofluorescein (DCF). BJ-TERT/LT/ST/RAS^V12 and BJ-TERT cells were seeded at 3×10^5 cells per dish in 60-mm dishes and allowed to grow overnight. Cells were treated with 4.6 μM erastin for 2, 4, 6, 8, 10 and 12 h. […] 400 μl of PBS was added and the solution analyzed by flow cytometry (FACSCalibur-Becton-Dickinson). FL1-H indicates DCF fluorescence units detected.

[4] = test system: BJ-TERT/LT/ST/RAS^V12 cells; assay: Cell death, viable cells counted using a hemacytometer; type: cell-based, human; details: 13 μM erastin A1, 23 μM antimycin, 126 μM 2-methoxyestradiol or the combinations
[5] = Stability in mouse liver microsomes; type: in vitro ADME; details: after 1 hr
Experimental: The stability of erastin in mouse and human liver microsomes and in mouse and human plasma was assessed. In both human and mouse liver microsomes, after 1 hr, ˜30% of erastin was converted to its primary metabolite (the O-de-ethylated product). In both human and mouse plasma, only ˜10% of erastin was lost after five hours. Thus, erastin has sufficient metabolic and plasma stability to be tested in vivo in mice.

A673 = assay: Response of tumor cell lines to erastin (dose-response); type: cell-based, human
Experimental: (§1) Given that oncogenic RAS activates at least four downstream pathways, analysis was performed to identify which downstream effects were necessary for erastin sensitivity. In certain embodiments, the invention provides that erastin inhibits growth and kills genuine tumor cells with RAS mutations. In other embodiments, the invention provides measures of the dose-response of 29 tumor cell lines to erastin, wherein there is at least 50% inhibition of viability in 18 of the cell lines (Table 4). Numerous sarcoma-derived tumor cell lines were sensitive to erastin, consistent with the fact that erastin was discovered in an engineered tumor cell line created from human fibroblasts.

BJEH = assay: as above; type: cell-based, human
Experimental: as §1

HT1080 = assay: as above; type: cell-based, human
Experimental: as §1

BJELR = assay: as above; type: cell-based, human
Experimental: as §1

HOS = assay: as above; type: cell-based
Experimental: as §1

With CCOc1ccccc1-n1c(C(C)N2CCN(C(=O)COc3ccc(Cl)cc3)CC2)nc2ccccc2c1=O (stereo not shown) [erastin, 2-(1-{4-[2-(4-Chloro-phenoxy)-acetyl]-piperazin-1-yl}-ethyl)-3-(2-ethoxy-phenyl)-3H-quinazolin-4-one] the “Gross toxicity (body weight and behavior)” value ([1]; 150 mg/kg in 10% DMSO, 20% Tween 80, 70% saline, IV twice per day for four days, nude mice) was “No gross toxicity”, the Overt toxicity ([1]; single dose IP in 100% DMSO up to 450 mg/kg) was “no overt toxicity” and the “percentage of cells in M1 region (Annexin V staining)” value [2] was 6%. The VDAC3 protein level (VDAC2, VDAC3; after 8 hours of erastin treatment) was “no longer detectable”, the VDAC2 protein level (VDAC2, VDAC3; after 10 hours of erastin treatment) was “undetectable” and the “Formation of oxidative species” value [3] was “oxidizing species were detected”. The “Cell death (%)” value [4] was 100%, the “converted to primary metabolite (O-de-ethylated product)” value [5] was roughly 30% and the “Erastin Sensitivity (maximum percent killing, as fraction)” value (A673; A673) was 0.54. For the same molecule, the Max % killing (A673; A673, Ewing sarcoma) was 54%, the EC50 (A673; Homo sapiens, A673) was 30 µM and the “Erastin Sensitivity (maximum percent killing, as fraction)” value (BJEH; BJ-TERT) was 0.22. For the same molecule, the Max % killing (BJEH; BJEH, foreskin fibroblast w/TERT) was 22%, the EC50 (BJEH; Homo sapiens, BJeH) was 10 µM and the “Erastin Sensitivity (maximum percent killing, as fraction)” value (HT1080; HT 1080) was 0.98. For the same molecule, the Max % killing (HT1080; HT1080, Fibrosarcoma) was 98%, the EC50 (HT1080; Homo sapiens, HT-1080, HT1080) was 2 µM and the “Erastin Sensitivity (maximum percent killing, as fraction)” value (BJELR; BJ-TERT/LT/ST/RAS^V12) was 1.00. It also gave a Max % killing (BJELR; BJELR, foreskin fibroblasts w/TERT, LT, ST, RAS) of 100%, an EC50 (BJELR; Homo sapiens, BJeLR) of 6 µM and an EC50 (HOS; Homo sapiens) of 17 µM. The Max % killing (HOS; Osteosarcoma) was 100%.
